# Patent publication US20250025443A1, “COMPOUNDS AND METHODS FOR TREATING CORONA VIRUSES” (CLEAR CREEK BIO, INC., priority 2021, published 2025)
# Target: SARS-CoV-2 Papain-Like Protease (PLpro) (Severe acute respiratory syndrome coronavirus 2 (2019-nCoV) (SARS-CoV-2), UniProt P0DTD1)
# Experiment: biochemical
# Conditions: PLpro enzymatic fluorescence assay; class symbols; read-out: PLpro IC50
row,Compound,IC50 [nM]
1,COc1cc(C2(NCc3cc(OCCN)ccc3C)CC2)c2cccnc2c1 [Compound 513],< 100
2,"Cc1ccc(OCC2CCN2C)cc1C(=O)NC1(c2cc(-c3ccc(Cl)s3)cc3ccccc23)CC1 (centres unmarked) [Compound 514, N-(1-(3-(5-Chlorothiophen-2-yl)naphthalen-1-yl)cyclopropyl)-2-methyl-5-((1-methylazetidin-2-yl)methoxy)benzamide]",< 100
3,"CCc1cc(C2(NC(=O)c3cc(OCC4CCN4C)ccc3C)CC2)c2ccccc2c1 (centres unmarked) [Compound 516, N-(1-(3-Ethylnaphthalen-1-yl)cyclopropyl)-2-methyl-5-((1-methylazetidin-2-yl)methoxy)benzamide]",< 100
4,"C=Cc1cc(C2(NC(=O)c3cc(OCC4CCN4C)ccc3C)CC2)c2ccccc2c1 (centres unmarked) [Compound 517, 2-Methyl-5-((1-methylazetidin-2-yl)methoxy)-N-(1-(3-vinylnaphthalen-1-yl)cyclopropyl)benzamide]",< 100
5,"Cc1ccc(OCC2CCN2C)cc1C(=O)NC1(c2cc(-c3ccc(F)cc3)cc3ccccc23)CC1 (centres unmarked) [Compound 518, N-(1-(3-(4-Fluorophenyl)naphthalen-1-yl)cyclopropyl)-2-methyl-5-((1-methylazetidin-2-yl)methoxy)benzamide]",< 100
6,"COc1cc(C2(NC(=O)c3cc(OC[C@H]4C[C@H](F)CN4C)ccc3C)CC2)c2ccccc2c1 [Compound 531, 5-(((2R,4S)-4-Fluoro-1-methylpyrrolidin-2-yl)methoxy)-N-(1-(3-methoxynaphthalen-1-yl)cyclopropyl)-2-methylbenzamide]",< 100
7,"COc1cc(C2(NC(=O)c3cc(OC[C@@H]4C[C@@H](F)CN4C)ccc3C)CC2)c2cccnc2c1 [Compound 532, 5-(((2S,4R)-4-Fluoro-1-methylpyrrolidin-2-yl)methoxy)-N-(1-(7-methoxyquinolin-5-yl)cyclopropyl)-2-methylbenzamide]",< 100
8,"COc1cc(C2(NC(=O)c3cc(OC[C@@H](C)N)ccc3C)CC2)c2cccnc2c1 [Compound 535, (R)-5-(2-Aminopropoxy)-N-(1-(7-methoxyquinolin-5-yl)cyclopropyl)-2-methylbenzamide]",< 100
9,"COc1cc(C2(NC(=O)c3cc(OC[C@H](C)N)ccc3C)CC2)c2ccncc2c1 [Compound 536, (S)-5-(2-Aminopropoxy)-N-(1-(7-methoxyisoquinolin-5-yl)cyclopropyl)-2-methylbenzamide]",< 100
10,"COc1cc(C2(NC(=O)c3cc(OC[C@@H](C)N)ccc3C)CC2)c2ccncc2c1 [Compound 537, (R)-5-(2-Aminopropoxy)-N-(1-(7-methoxyisoquinolin-5-yl)cyclopropyl)-2-methylbenzamide]",< 100
11,"Cc1ccc(OC[C@@H](C)N)cc1C(=O)NC1(c2cc(Br)cc3ccccc23)CC1 [Compound 540, (R)-5-(2-Aminopropoxy)-N-(1-(3-bromonaphthalen-1-yl)cyclopropyl)-2-methylbenzamide]",< 100
12,"Cc1ccc(OC[C@@H](C)N)cc1C(=O)NC1(c2cc(-c3cccs3)cc3ccccc23)CC1 [Compound 543, (R)-5-(2-Aminopropoxy)-2-methyl-N-(1-(3-(thiophen-2-yl)naphthalen-1-yl)cyclopropyl)benzamide]",< 100
13,"CC(C)c1ccccc1C(C)N1CCC(C(=O)NCc2cccc(F)c2)CC1 (centres unmarked) [Compound 552, N-(3-Fluorobenzyl)-1-(1-(2-isopropylphenyl)ethyl)piperidine-4-carboxamide]",> 5000
14,"COc1cc(C2(NC(=O)c3cc(OC[C@@H]4CCCCN4C)ccc3C)CC2)c2cccnc2c1 [Compound 553, (S)-N-(1-(7-Methoxyquinolin-5-yl)cyclopropyl)-2-methyl-5-((1-methylpiperidin-2-yl)methoxy)benzamide]",< 100
15,"COc1cc(C2(NC(=O)c3cc(OC[C@H]4CCN4)ccc3C)CC2)c2cccnc2c1 [Compound 554, (R)-5-(Azetidin-2-ylmethoxy)-N-(1-(7-methoxyquinolin-5-yl)cyclopropyl)-2-methylbenzamide]",< 100

# Same assay, conditions: SARS-CoV-2 PLpro enzymatic fluorescence assay; read-out: PLpro IC50
row,Compound,IC50 [nM]
1,"COc1cc(C2(NC(=O)c3cc(OC[C@@H]4CCN4)ccc3C)CC2)c2cccnc2c1 [Compound 511, (S)-5-(Azetidin-2-ylmethoxy)-N-(1-(7-methoxyquinolin-5-yl)cyclopropyl)-2-methylbenzamide]",< 100
2,"Cc1ccc(OCC2CCN2C)cc1C(=O)NC1(c2cc(C(N)=O)cc3ccccc23)CC1 (centres unmarked) [Compound 520, 4-(1-(2-Methyl-5-((1-methylazetidin-2-yl)methoxy)benzamido)cyclopropyl)-2-naphthamide]",< 100
3,"Cc1ccc(OCC2CCN2C)cc1C(=O)NC1(c2cc(C(C)C)cc3ccccc23)CC1 (centres unmarked) [Compound 521, N-(1-(3-Isopropylnaphthalen-1-yl)cyclopropyl)-2-methyl-5-((1-methylazetidin-2-yl)methoxy)benzamide]",< 100
4,"CC(c1cccc2cnccc12)N1CCC(C(=O)NCc2cccc(F)c2)CC1 (centres unmarked) [Compound 522, N-(3-Fluorobenzyl)-1-(1-(isoquinolin-5-yl)ethyl)piperidine-4-carboxamide]",> 5000
5,"COc1cc(C(C)N2CCC(C(=O)NCc3cccc(F)c3)CC2)c2ccccc2c1 (centres unmarked) [Compound 524, N-(3-Fluorobenzyl)-1-(1-(3-methoxynaphthalen-1-yl)ethyl)piperidine-4-carboxamide]",100 to 1000
6,"CNCCOc1ccc(C)c(C(=O)NC2(c3cc(OC)cc4ncccc34)CC2)c1 [Compound 526, N-(1-(7-Methoxyquinolin-5-yl)cyclopropyl)-2-methyl-5-(2-(methylamino)ethoxy)benzamide]",< 100
7,"COc1cc(C2(NC(=O)c3cc(OC[C@@H]4CCN4C)ccc3C)CC2)c2cccnc2c1 [Compound 527, (S)-N-(1-(7-Methoxyquinolin-5-yl)cyclopropyl)-2-methyl-5-((1-methylazetidin-2-yl)methoxy)benzamide]",< 100
8,"COc1cc(C2(NC(=O)c3cc(OC[C@@H]4CCCN4C)ccc3C)CC2)c2cccnc2c1 [Compound 528, (S)-N-(1-(7-Methoxyquinolin-5-yl)cyclopropyl)-2-methyl-5-((1-methylpyrrolidin-2-yl)methoxy)benzamide]",< 100
9,"Cc1ccc(OCC2CCN2C)cc1C(=O)NC1(c2cccc3nc(F)ccc23)CC1 (centres unmarked) [Compound 529, N-(1-(2-Fluoroquinolin-5-yl)cyclopropyl)-2-methyl-5-((1-methylazetidin-2-yl)methoxy)benzamide]",< 100
10,"COc1cc(C2(NC(=O)c3cc(OC[C@H](C)N)ccc3C)CC2)c2cccnc2c1 [Compound 530, (S)-5-(2-Aminopropoxy)-N-(1-(7-methoxyquinolin-5-yl)cyclopropyl)-2-methylbenzamide]",< 100
11,"Cc1ccc(OC2CNC(C)(C)C2)cc1C(=O)NC1(c2cccc3ccccc23)CC1 (centres unmarked) [Compound 533, 5-((5,5-Dimethylpyrrolidin-3-yl)oxy)-2-methyl-N-(1-(naphthalen-1-yl)cyclopropyl)benzamide]",< 100
12,"Cc1ccc(OCC2CC(C)(C)N2)cc1C(=O)NC1(c2cccc3ccccc23)CC1 (centres unmarked) [Compound 534, 5-((4,4-Dimethylazetidin-2-yl)methoxy)-2-methyl-N-(1-(naphthalen-1-yl)cyclopropyl)benzamide]",< 100
13,COc1cc(C2(NC(=O)c3cc(CC[C@@H]4CCC4C)ccc3C)CC2)c2ccncc2c1 (some centres unmarked) [Compound 538],< 100
14,"Cc1ccc(OC[C@H](C)N)cc1C(=O)NC1(c2cc(-c3cccs3)cc3ccccc23)CC1 [Compound 539, (S)-5-(2-Aminopropoxy)-2-methyl-N-(1-(3-(thiophen-2-yl)naphthalen-1-yl)cyclopropyl)benzamide]",< 100
15,"Cc1ccc(OC[C@H](C)N)cc1C(=O)NC1(c2cc(Br)cc3ccccc23)CC1 [Compound 541, (S)-5-(2-Aminopropoxy)-N-(1-(3-bromonaphthalen-1-yl)cyclopropyl)-2-methylbenzamide]",< 100
16,"Cc1ccc(OC[C@@H]2CCN2C)cc1C(=O)NC1(c2cc(O)nc3cc(F)ccc23)CC1 [Compound 542, (S)-N-(1-(7-Fluoro-2-hydroxyquinolin-4-yl)cyclopropyl)-2-methyl-5-((1-methylazetidin-2-yl)methoxy)benzamide]",< 100
17,"COc1ccc2c(C3(NC(=O)c4cc(OC[C@@H]5CCN5C)ccc4C)CC3)cccc2n1 [Compound 544, (S)-N-(1-(2-Methoxyquinolin-5-yl)cyclopropyl)-2-methyl-5-((1-methylazetidin-2-yl)methoxy)benzamide]",< 100
18,"Cc1ccc(OC[C@@H]2CCN2C)cc1C(=O)NC1(c2cccc3nc(O)ccc23)CC1 [Compound 545, (S)-N-(1-(2-Hydroxyquinolin-5-yl)cyclopropyl)-2-methyl-5-((1-methylazetidin-2-yl)methoxy)benzamide]",< 100
19,"Cc1ccc2c(C3(NC(=O)c4cc(OC[C@@H]5CCN5C)ccc4C)CC3)cccc2n1 [Compound 547, (S)-2-Methyl-5-((1-methylazetidin-2-yl)methoxy)-N-(1-(2-methylquinolin-5-yl)cyclopropyl)benzamide]",< 100
20,"Cc1ccc(OC[C@@H]2CCN2C)cc1C(=O)NC1(c2cccc3nc(N(C)C)ccc23)CC1 [Compound 548, (S)-N-(1-(2-(Dimethylamino)quinolin-5-yl)cyclopropyl)-2-methyl-5-((1-methylazetidin-2-yl)methoxy)benzamide]",< 100
21,"CC(c1cccc2ncccc12)N1CCC(C(=O)NCc2cccc(F)c2)CC1 (centres unmarked) [Compound 549, N-(3-Fluorobenzyl)-1-(1-(quinolin-5-yl)ethyl)piperidine-4-carboxamide]",> 5000
22,"COc1cc(C2(NC(=O)c3cc(OC[C@@H]4CCCCN4)ccc3C)CC2)c2cccnc2c1 [Compound 550, (S)-N-(1-(7-Methoxyquinolin-5-yl)cyclopropyl)-2-methyl-5-(piperidin-2-ylmethoxy)benzamide]",< 100
23,"Cc1ccc(OC[C@@H]2CCN2C)cc1C(=O)NC1(c2cc(-c3cccs3)cc3ncccc23)CC1 [Compound 551, (S)-2-Methyl-5-((1-methylazetidin-2-yl)methoxy)-N-(1-(7-(thiophen-2-yl)quinolin-5-yl)cyclopropyl)benzamide]",< 100
